Assay results: ChEMBL document CHEMBL1201862, “PubChem BioAssay data set” (2004)
Active and inactive are the calls of the source.

Assays:
[1] = Fluorescence-based cell-based high throughput dose response assay for inhibitors of the interaction of nucleotide-binding oligomerization domain containing 2 (NOD2) and the receptor-interacting serine-threonine kinase 2 (RIPK2).; format: functional; settings: Homo sapiens
[2] = biological target: Beta Lactamase (Pseudomonas aeruginosa, UniProt Q932Y6); assay: BLA reporter interference, concentration series – BLA reporter cells, FRET fluorescence, artefact control for NOD2-RIPK2 interaction inhibitor project, dose response (AID 651552); format: functional, cell-based
[3] = biological target: T1, Mitochondrial peptide methionine sulfoxide reductase (Bos taurus, UniProt P54149); assay: Absorbance-based biochemical high throughput dose response assay for activators of Methionine sulfoxide reductase A (MsrA).; format: functional
T1 sequence (P54149 whole entry): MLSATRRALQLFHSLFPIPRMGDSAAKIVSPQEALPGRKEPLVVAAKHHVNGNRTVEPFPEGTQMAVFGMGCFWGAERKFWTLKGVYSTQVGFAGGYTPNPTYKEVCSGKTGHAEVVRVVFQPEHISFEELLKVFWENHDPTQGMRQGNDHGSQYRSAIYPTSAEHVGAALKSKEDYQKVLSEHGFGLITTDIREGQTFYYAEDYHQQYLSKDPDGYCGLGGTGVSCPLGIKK

[4] = biological target: T2, Carboxy-terminal domain RNA polymerase II polypeptide A small phosphatase 1 (Homo sapiens, UniProt Q9GZU7); assay: CTDSP1 inhibitors, concentration-response, biochemical, absorbance readout, ultra-high-throughput screen actives (AID 540297); format: functional
T2 sequence (Q9GZU7 whole entry): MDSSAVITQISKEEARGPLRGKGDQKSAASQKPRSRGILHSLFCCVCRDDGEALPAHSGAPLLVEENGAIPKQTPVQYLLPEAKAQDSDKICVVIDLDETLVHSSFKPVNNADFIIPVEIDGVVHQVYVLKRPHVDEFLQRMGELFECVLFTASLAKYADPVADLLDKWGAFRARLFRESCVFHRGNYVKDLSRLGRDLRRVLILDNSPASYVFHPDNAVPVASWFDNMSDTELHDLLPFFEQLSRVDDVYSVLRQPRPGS

[5] = biological target: Tyrosine-protein phosphatase non-receptor type 5 (Homo sapiens, UniProt P54829); assay: PTPN5 enzyme inhibition – biochemical, fluorescence intensity, uHTS hits, confirmation (AID 602372); format: functional; settings: read-out: IC50_Mean
[6] = biological target: Dual specificity protein phosphatase 3 (Homo sapiens, UniProt P51452); assay: VHR phosphatase inhibition, dose response, selectivity assay for STEP inhibitor project, biochemical (AID 602374); format: functional; settings: read-out: IC50_Mean
[7] = biological target: Tyrosine-protein phosphatase non-receptor type 11 (Homo sapiens, UniProt Q06124); assay: PTPN11 enzyme inhibitors – biochemical, selectivity assay for STEP inhibitor project, dose response (AID 602367); format: functional; settings: read-out: IC50_Mean
[8] = biological target: T3, Caspase-6 (Homo sapiens, UniProt P55212); assay: inhibition of CASP6 peptide cleavage – biochemical, VEID-R110 fluorescence, cherry-pick, dose response (AID 720632)
T3 sequence (P55212 whole entry): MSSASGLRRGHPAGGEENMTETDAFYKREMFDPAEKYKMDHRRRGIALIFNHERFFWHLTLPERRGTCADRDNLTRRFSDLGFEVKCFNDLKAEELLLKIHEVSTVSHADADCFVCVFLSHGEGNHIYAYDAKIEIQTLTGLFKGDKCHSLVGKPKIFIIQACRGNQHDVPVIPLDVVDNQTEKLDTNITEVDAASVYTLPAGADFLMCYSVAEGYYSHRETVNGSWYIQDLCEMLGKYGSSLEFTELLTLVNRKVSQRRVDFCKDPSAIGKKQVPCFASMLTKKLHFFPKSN

[9] = biological target: Photoreceptor-specific nuclear receptor (Homo sapiens, UniProt Q9Y5X4); format: functional, cell-based;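 further: CHO-S cells with Gal4-NCOR and VP16-NR2E3 two-hybrid luciferase reporter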
[10] = test system: P388; assay: cells; format: functional; settings: Mus musculus
[11] = test system: SN12K1; assay: cells; format: functional; settings: Homo sapiens
[12] = test system: P388/ADR; assay: cells; format: functional; settings: Mus musculus
[13] = biological target: T4, Endoribonuclease toxin MazF (Escherichia coli K-12, UniProt P0AE70); assay: activation of MazEF endoribonuclease cleavage – biochemical, fluorescence, single-stranded RNA substrate, uHTS hits, dose response (AID 588481); format: functional
T4 sequence (P0AE70 whole entry): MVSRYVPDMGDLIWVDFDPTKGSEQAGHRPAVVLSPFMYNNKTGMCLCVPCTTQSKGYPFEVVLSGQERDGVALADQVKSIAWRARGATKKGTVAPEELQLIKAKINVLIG

[14] = biological target: T4, Endoribonuclease toxin MazF; assay: substrate-only fluorescence increase artefacts – biochemical, single-stranded RNase substrate, counter-screen for MazEF activator project, dose response (AID 588502); format: functional
[15] = biological target: T5, Aryl hydrocarbon receptor (Homo sapiens, UniProt P35869); settings: Potency;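 further: confirmatory quantitative high-throughput screen measuring activation of the AhR signaling pathway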
T5 sequence (P35869 whole entry): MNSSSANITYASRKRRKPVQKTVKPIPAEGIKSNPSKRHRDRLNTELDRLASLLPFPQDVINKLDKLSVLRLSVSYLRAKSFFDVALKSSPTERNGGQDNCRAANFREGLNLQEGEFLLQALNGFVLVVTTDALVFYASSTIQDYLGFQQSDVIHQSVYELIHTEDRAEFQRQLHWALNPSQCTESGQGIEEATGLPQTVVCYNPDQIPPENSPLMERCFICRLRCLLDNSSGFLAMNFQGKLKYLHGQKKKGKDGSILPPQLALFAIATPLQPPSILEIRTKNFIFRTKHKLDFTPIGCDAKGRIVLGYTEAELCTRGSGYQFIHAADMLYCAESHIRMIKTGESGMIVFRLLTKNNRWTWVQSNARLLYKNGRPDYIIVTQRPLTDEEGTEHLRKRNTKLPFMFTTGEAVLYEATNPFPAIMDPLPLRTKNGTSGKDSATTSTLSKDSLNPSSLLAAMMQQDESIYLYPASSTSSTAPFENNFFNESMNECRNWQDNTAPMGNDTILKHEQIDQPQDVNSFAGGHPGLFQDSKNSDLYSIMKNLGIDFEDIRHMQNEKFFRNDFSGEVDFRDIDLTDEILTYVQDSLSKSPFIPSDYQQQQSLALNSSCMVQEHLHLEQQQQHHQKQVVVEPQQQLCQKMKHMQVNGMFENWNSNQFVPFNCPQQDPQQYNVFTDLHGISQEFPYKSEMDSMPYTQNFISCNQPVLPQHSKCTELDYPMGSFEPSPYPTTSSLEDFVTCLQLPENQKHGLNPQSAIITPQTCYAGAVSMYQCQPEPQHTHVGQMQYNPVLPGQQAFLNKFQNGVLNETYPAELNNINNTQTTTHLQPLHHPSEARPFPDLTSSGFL

[16] = biological target: T6, Low molecular weight phosphotyrosine protein phosphatase (Homo sapiens, UniProt P24666); format: functional; settings: read-out: IC50_Mean
T6 sequence (P24666 whole entry): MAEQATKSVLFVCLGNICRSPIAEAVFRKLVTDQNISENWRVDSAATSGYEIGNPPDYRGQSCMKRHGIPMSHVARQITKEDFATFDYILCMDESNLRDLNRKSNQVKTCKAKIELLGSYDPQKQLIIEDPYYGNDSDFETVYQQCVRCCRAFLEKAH

[17] = biological target: T6, Low molecular weight phosphotyrosine protein phosphatase; format: functional; settings: read-out: IC50_Mean; remark: listed apart in the source
[18] = biological target: T7, COUP transcription factor 2 (Homo sapiens, UniProt P24468); assay: Luminescence-based cell-based high throughput dose response assay to identify inhibitors of COUP-TFII (NR2F2).; format: functional;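 further: HEK293 cells transiently cotransfected with COUP-TFII expression vector and reporter; luciferase reporter luminescence driven by COUP-TFII from the pX2-168 reporter plasmid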
T7 sequence (P24468 whole entry): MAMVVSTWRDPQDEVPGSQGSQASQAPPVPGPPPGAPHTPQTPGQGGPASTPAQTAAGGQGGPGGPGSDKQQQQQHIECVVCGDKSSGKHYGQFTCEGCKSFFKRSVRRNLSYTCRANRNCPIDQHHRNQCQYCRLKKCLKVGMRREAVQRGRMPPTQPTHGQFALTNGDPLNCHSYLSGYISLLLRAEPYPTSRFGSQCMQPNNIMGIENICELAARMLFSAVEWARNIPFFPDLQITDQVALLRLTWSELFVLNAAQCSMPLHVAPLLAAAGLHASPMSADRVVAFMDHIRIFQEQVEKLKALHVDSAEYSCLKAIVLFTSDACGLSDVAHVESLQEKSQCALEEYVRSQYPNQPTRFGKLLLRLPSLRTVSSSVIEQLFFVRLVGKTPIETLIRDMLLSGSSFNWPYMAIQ

[19] = biological target: DNA dC->dU-editing enzyme APOBEC-3G (Homo sapiens, UniProt Q9HC16); assay: SAR analysis of small molecule inhibitors of APOBEC3G DNA Deaminase via a fluorescence-based single-stranded DNA deaminase assay - Set 2.; format: functional; settings: read-out: IC50_Mean
[20] = biological target: DNA dC->dU-editing enzyme APOBEC-3A (Homo sapiens, UniProt P31941); assay: SAR analysis of small molecule inhibitors of APOBEC3A DNA Deaminase via a fluorescence-based single-stranded DNA deaminase assay - Set 2.; format: functional; settings: read-out: IC50_Mean
DNA dC->dU-editing enzyme APOBEC-3A, sequence (P31941 whole entry): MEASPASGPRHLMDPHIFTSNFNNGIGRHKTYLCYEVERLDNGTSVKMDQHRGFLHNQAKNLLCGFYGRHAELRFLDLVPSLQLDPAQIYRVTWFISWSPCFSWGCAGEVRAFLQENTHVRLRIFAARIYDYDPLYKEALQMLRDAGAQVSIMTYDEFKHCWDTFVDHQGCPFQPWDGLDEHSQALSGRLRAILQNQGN

Tyrosine-protein phosphatase non-receptor type 11, sequence (Q06124 whole entry): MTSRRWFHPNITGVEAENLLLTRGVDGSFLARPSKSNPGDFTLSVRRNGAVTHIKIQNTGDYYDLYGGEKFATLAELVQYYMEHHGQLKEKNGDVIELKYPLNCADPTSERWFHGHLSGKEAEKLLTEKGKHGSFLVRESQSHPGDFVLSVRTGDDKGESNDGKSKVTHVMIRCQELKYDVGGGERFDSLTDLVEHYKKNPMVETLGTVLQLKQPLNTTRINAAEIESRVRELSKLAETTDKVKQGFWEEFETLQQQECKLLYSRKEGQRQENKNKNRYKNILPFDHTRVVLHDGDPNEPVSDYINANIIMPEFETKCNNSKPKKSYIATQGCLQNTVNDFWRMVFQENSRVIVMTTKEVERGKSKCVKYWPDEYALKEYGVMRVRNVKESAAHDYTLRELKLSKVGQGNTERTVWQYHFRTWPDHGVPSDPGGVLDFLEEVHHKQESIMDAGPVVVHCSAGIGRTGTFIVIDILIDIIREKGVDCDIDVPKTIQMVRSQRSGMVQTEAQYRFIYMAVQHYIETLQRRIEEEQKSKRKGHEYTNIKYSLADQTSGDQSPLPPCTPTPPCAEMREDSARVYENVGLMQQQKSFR
Photoreceptor-specific nuclear receptor, sequence (Q9Y5X4 whole entry, the tested form may be a part): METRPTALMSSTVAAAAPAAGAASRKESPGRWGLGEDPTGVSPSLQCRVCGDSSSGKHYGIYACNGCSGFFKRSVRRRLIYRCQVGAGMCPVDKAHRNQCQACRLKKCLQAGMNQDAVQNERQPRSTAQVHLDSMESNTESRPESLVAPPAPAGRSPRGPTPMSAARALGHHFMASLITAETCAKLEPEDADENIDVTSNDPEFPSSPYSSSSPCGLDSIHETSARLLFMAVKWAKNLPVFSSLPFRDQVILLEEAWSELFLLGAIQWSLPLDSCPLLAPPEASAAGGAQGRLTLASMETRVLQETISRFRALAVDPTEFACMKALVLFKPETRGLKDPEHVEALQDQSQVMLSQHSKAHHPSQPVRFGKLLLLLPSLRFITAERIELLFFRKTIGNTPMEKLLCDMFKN
Dual specificity protein phosphatase 3, sequence (P51452 whole entry): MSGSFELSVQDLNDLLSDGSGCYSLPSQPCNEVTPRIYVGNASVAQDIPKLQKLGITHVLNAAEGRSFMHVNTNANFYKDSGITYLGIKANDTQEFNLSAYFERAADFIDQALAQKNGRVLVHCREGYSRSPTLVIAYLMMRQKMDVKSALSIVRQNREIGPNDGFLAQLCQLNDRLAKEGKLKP
Tyrosine-protein phosphatase non-receptor type 5, sequence (P54829 whole entry): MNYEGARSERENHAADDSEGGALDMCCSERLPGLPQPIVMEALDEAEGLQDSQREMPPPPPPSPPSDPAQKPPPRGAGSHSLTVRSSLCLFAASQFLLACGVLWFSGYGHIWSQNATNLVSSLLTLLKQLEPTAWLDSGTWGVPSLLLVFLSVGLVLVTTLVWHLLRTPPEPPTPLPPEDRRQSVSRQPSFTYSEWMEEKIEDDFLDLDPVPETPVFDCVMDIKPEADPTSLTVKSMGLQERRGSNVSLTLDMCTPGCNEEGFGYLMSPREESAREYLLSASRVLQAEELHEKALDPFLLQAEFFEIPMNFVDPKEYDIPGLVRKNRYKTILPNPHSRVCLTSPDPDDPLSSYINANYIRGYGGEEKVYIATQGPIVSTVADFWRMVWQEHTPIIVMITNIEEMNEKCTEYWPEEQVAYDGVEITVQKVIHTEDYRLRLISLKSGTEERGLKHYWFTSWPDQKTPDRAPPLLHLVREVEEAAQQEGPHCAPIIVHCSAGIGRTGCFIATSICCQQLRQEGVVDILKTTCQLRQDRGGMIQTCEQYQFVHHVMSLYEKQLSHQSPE
DNA dC->dU-editing enzyme APOBEC-3G, sequence (Q9HC16 whole entry): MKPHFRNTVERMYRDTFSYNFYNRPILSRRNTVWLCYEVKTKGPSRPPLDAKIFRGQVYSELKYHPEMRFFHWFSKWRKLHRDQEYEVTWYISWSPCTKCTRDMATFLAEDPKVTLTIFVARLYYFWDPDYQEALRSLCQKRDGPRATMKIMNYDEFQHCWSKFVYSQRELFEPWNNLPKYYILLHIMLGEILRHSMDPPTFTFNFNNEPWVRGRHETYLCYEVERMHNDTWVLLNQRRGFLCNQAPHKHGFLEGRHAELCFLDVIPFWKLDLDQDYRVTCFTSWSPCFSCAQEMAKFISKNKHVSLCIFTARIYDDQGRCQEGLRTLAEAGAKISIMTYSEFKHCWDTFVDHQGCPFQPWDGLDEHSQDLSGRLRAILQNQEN
Beta Lactamase, sequence (Q932Y6 whole entry): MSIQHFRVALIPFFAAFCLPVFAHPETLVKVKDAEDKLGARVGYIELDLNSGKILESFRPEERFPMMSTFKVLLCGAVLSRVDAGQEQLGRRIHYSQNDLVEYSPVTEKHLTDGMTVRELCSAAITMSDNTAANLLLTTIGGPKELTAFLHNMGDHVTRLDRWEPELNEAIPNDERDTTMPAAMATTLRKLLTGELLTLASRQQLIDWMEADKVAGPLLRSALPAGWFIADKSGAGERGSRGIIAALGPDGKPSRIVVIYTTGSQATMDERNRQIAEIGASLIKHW

Question: With `CCOC(=O)[C@]12Cc3cc(Cl)ccc3[C@H]1N(C(C)C)C(=O)c1ccccc12` as the compound, how does the IC50 [1] read?
Answer: 2.21 µM (active)

Question: And the IC50 [2]?
Answer: 45.2 µM (inactive)

Question: Which EC50 [3] does the source give for `NC(=S)NN=C1CSSC1` here?
Answer: 12.9 µM (inactive)

Question: Which results are given for `CC(=O)N1CCOc2ccc(S(=O)(=O)NCc3ccc(F)cc3)cc21`?
Answer: IC50 [4]: 9.32 µM (active); IC50 [5]: 56.5 µM (inactive); IC50 [6]: 2.66 µM (active); IC50 [7]: 4.64 µM (active); AC50 [8]: 11.2 µM (active)

Question: With `O=C(NC(=O)N1CCN(c2cccc(Cl)c2)CC1)c1ccccc1` as the compound, how does the IC50 [9] read?
Answer: 4.75 µM (active)

Question: Which GI50 [10] does the source give for `CN1c2c(O)nc(N)nc2NCC1CCNc1ccc(C(=O)NC(CCC(=O)O)C(=O)O)cc1` (centres undefined) here?
Answer: 4.5 µM (inactive)

Question: And the GI50 [11]?
Answer: 5.5 µM (inactive)

Question: And the GI50 [12]?
Answer: 2.49 µM (inactive)

Question: Which results are given for `CCSc1nnc(N2C(=O)C(O)=C(C(=O)c3ccco3)C2c2cccc(OC)c2)s1` (centres undefined)?
Answer: EC50 [13]: > 99 µM (inactive); EC50 [14]: > 99 µM (inactive)

Question: For `O=[N+]([O-])c1cc(C(F)(F)F)c(Cl)c([N+](=O)[O-])c1Nc1ncc(C(F)(F)F)cc1Cl` [FLUAZINAM], which AC50 [15] is on record?
Answer: 31.6 µM (inconclusive)

Question: Which IC50 [4] does the source give for `O=C(CCc1ccccc1)NNC(=O)c1ccc(NC(=O)c2ccccc2)cc1` here?
Answer: 6.27 µM (active)

Question: What about the IC50 [16] of the same compound?
Answer: 31.2 µM (inactive)

Question: What about the IC50 [5] of the same compound?
Answer: 17.3 µM (active)

Question: What about the IC50 [6] of the same compound?
Answer: 3.9 µM (active)

Question: What about the IC50 [17] of the same compound?
Answer: 24.9 µM (inactive)

Question: What about the IC50 [7] of the same compound?
Answer: 3.98 µM (active)

Question: What does the source list for `N=c1c[n+](N2CCOCC2)[n-]o1`?
Answer: EC50 [13]: 30.3 µM (inactive); EC50 [14]: > 99 µM (inactive)

Question: For `CCCCCCNC(=O)C(C)C1CCC2(C)C=CC(=O)C(C)=C2C1O` (centres undefined), which GI50 [10] is on record?
Answer: 62.5 µM (inactive)

Question: What about the GI50 [11] of the same compound?
Answer: > 100 µM (inactive)

Question: And the GI50 [12]?
Answer: > 42.3 µM (inactive)

Question: Which results are given for `c1ccc(C(Cc2nc(-c3ccncc3)no2)c2ccccc2)cc1`?
Answer: IC50 [9]: 5.57 µM (active); IC50 [18]: 14 µM (inactive)

Question: With `COc1cc([C@@H]2c3cc4c(cc3C[C@H]3COC(=O)[C@@H]32)OCO4)cc(OC)c1OC` [DESOXYPODOPHYLLOTOXIN] as the compound, how does the GI50 [10] read?
Answer: 0.005 µM (active)

Question: And the GI50 [11]?
Answer: 0.00596 µM (active)

Question: What about the GI50 [12] of the same compound?
Answer: 0.0108 µM (active)

Question: Which IC50 [19] does the source give for `CN(Cc1ccccc1)C(=O)c1cc2ncc(Br)cn2n1` here?
Answer: 77.8 µM (inactive)

Question: What about the IC50 [20] of the same compound?
Answer: 34.5 µM (inactive)

Question: With `Nc1c(Cl)c(Cl)c(Cl)c(Cl)c1Cl` as the compound, how does the AC50 [15] read?
Answer: 44.7 µM (inconclusive)
